# Experimental data taken from US20230295197A1, “STAT5 and STAT6 Degraders and Uses Thereof” (REGENTS OF THE UNIVERSITY OF MICHICAN, priority 2022, published 2023).
# Target: T1, STAT6 (Homo sapiens, UniProt P42226)
# T1 construct: endogenous in cells; host or cells: MOLM-16, KU-812, SKNO1, MB231, L1236
# T1 sequence (P42226 1-847): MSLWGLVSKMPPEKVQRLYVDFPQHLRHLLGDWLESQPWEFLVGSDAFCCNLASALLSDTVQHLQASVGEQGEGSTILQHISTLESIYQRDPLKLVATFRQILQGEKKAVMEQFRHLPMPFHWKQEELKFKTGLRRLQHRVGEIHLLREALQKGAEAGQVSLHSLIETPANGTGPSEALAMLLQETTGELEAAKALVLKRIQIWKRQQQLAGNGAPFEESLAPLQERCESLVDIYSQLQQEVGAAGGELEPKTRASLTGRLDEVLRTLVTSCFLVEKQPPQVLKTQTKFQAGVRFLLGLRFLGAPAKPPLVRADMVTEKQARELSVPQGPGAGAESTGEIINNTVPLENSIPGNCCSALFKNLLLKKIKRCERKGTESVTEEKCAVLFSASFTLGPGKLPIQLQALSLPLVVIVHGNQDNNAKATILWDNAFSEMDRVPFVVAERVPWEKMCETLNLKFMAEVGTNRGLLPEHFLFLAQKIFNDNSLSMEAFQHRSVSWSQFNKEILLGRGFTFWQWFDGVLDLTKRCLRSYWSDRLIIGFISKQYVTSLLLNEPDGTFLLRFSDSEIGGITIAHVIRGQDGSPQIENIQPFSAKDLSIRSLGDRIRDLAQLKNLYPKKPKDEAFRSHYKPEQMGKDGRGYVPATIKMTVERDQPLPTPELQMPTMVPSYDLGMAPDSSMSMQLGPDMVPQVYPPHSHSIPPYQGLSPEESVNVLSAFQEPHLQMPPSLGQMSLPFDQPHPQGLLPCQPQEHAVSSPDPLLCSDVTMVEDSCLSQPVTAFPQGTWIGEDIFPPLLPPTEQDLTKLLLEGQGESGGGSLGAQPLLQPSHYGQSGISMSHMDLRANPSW
# Test: Immunoblotting (Western blot) analysis of STAT6 degradation efficiency of degraders in treated cells
# Type: cell-based
# Conditions: L1236 cells, read-out: DC50 S6 L1236
# How it was run: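 Read-out: fluorescent IRDye 680RD/800CW secondaries imaged on an infrared scanner, with band intensities quantified by densitometry and GAPDH serving as loading control. Samples were RIPA lysates, BCA-normalised, from ~1 million treated cells.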
row,SMILES,DC50 [µM]
1,"Cc1ncsc1-c1ccc([C@H](C)NC(=O)[C@@H]2C[C@@H](O)CN2C(=O)[C@@H](NC(=O)CCCCCCCNC(=O)COc2ccc3c(c2)CN(C(=O)[C@@H](NC(=O)c2cc4cc(C(F)(F)P(=O)(O)O)ccc4s2)C(C)(C)C)[C@H](C(=O)N2CCO[C@H](c4ccccc4)C2)C3)C(C)(C)C)cc1 [Compound 467, (difluoro(2-(((S)-1-((S)-7-(2-((8-(((S)-1-((2S,4R)-4-hydroxy-2-(((S)-1-(4-(4-methylthiazol-5-yl)phenyl)ethyl)carbamoyl)pyrrolidin-1-yl)-3,3-dimethyl-1-oxobutan-2-yl)amino)-8-oxooctyl)amino)-2-oxoethoxy)-3-((R)-2-phenylmorpholine-4-carbonyl)-3,4-dihydroisoquinolin-2(1H)-yl)-3,3-dimethyl-1-oxobutan-2-yl)carbamoyl)benzo[b]thiophen-5-yl)methyl)phosphonic acid]",> 10
2,"Cc1ncsc1-c1ccc([C@H](C)NC(=O)[C@@H]2C[C@@H](O)CN2C(=O)[C@@H](NC(=O)CCCCCCCCNC(=O)CC(=O)N2CCN(C(=O)[C@@H](NC(=O)c3cc4cc(C(F)(F)P(=O)(O)O)ccc4s3)C(C)(C)C)[C@H](C(=O)N3CCC[C@H](c4ccccc4)C3)C2)C(C)(C)C)cc1 [Compound 459, (difluoro(2-(((S)-1-((S)-4-(3-((9-(((S)-1-((2S,4R)-4-hydroxy-2-(((S)-1-(4-(4-methylthiazol-5-yl)phenyl)ethyl)carbamoyl)pyrrolidin-1-yl)-3,3-dimethyl-1-oxobutan-2-yl)amino)-9-oxononyl)amino)-3-oxopropanoyl)-2-((R)-3-phenylpiperidine-1-carbonyl)piperazin-1-yl)-3,3-dimethyl-1-oxobutan-2-yl)carbamoyl)benzo[b]thiophen-5-yl)methyl)phosphonic acid]",> 10

# Same assay, conditions: MOLM-16 cells, class symbols, read-out: DC50 S6 MOLM-16
row,SMILES,DC50 [µM]
1,"CC(C)(C)[C@H](NC(=O)c1cc2cc(C(F)(F)P(=O)(O)O)ccc2s1)C(=O)N1CCN(C(=O)CC(=O)NCCCCC#Cc2cccc3c2C(=O)N(C2CCC(=O)NC2=O)C3=O)C[C@H]1C(=O)N1CCO[C@H](c2ccccc2)C1 (stereo partly drawn) [Compound 513, ((2-(((2S)-1-((2S)-4-(3-((6-(2-(2,6-dioxopiperidin-3-yl)-1,3-dioxoisoindolin-4-yl)hex-5-yn-1-yl)amino)-3-oxopropanoyl)-2-((R)-2-phenylmorpholine-4-carbonyl)piperazin-1-yl)-3,3-dimethyl-1-oxobutan-2-yl)carbamoyl)benzo[b]thiophen-5-yl)difluoromethyl)phosphonic acid]",> 10
2,"CC(C)(C)[C@H](NC(=O)c1cc2cc(C(F)(F)P(=O)(O)O)ccc2s1)C(=O)N1CCN(C(=O)CC(=O)NCC#Cc2ccc3c(c2)C(=O)N(C2CCC(=O)NC2=O)C3=O)C[C@H]1C(=O)N1CCO[C@H](c2ccccc2)C1 (stereo partly drawn) [Compound 508, ((2-(((2S)-1-((2S)-4-(3-((3-(2-(2,6-dioxopiperidin-3-yl)-1,3-dioxoisoindolin-5-yl)prop-2-yn-1-yl)amino)-3-oxopropanoyl)-2-((R)-2-phenylmorpholine-4-carbonyl)piperazin-1-yl)-3,3-dimethyl-1-oxobutan-2-yl)carbamoyl)benzo[b]thiophen-5-yl)difluoromethyl)phosphonic acid]",> 10
3,"CC(C)(C)[C@H](NC(=O)c1cc2cc(C(F)(F)P(=O)(O)O)ccc2s1)C(=O)N1C[C@@H](OCC(=O)NCCCCCC#Cc2ccc3c(c2)C(=O)N(C2CCC(=O)NC2=O)C3=O)C[C@H]1C(=O)N1CCO[C@H](c2ccccc2)C1 (stereo partly drawn) [Compound 488, ((2-(((2S)-1-((2S,4S)-4-(2-((7-(2-(2,6-dioxopiperidin-3-yl)-1,3-dioxoisoindolin-5-yl)hept-6-yn-1-yl)amino)-2-oxoethoxy)-2-((R)-2-phenylmorpholine-4-carbonyl)pyrrolidin-1-yl)-3,3-dimethyl-1-oxobutan-2-yl)carbamoyl)benzo[b]thiophen-5-yl)difluoromethyl)phosphonic acid]",> 10
4,"CC(C)(C)[C@H](NC(=O)c1cc2cc(C(F)(F)P(=O)(O)O)ccc2s1)C(=O)N1C[C@@H](OCC(=O)NCCCCCC#Cc2cccc3c2C(=O)N(C2CCC(=O)NC2=O)C3=O)C[C@H]1C(=O)N1CCC[C@H](c2ccccc2)C1 (stereo partly drawn) [Compound 501, ((2-(((2S)-1-((2S,4S)-4-(2-((7-(2-(2,6-dioxopiperidin-3-yl)-1,3-dioxoisoindolin-4-yl)hept-6-yn-1-yl)amino)-2-oxoethoxy)-2-((R)-3-phenylpiperidine-1-carbonyl)pyrrolidin-1-yl)-3,3-dimethyl-1-oxobutan-2-yl)carbamoyl)benzo[b]thiophen-5-yl)difluoromethyl)phosphonic acid]",> 10
5,"CC(C)(C)[C@H](NC(=O)C1=Cc2cc(C(F)(F)P(=O)(O)O)ccc2C1)C(=O)N1CSN(C(=O)CC(=O)NCC#Cc2cccc3c2C(=O)N(C2CCC(=O)NC2=O)C3=O)C[C@H]1C(=O)N1CCC[C@H](c2ccccc2)C1 (stereo partly drawn) [Compound 521, ((2-(((2S)-1-((4S)-2-(3-((3-(2-(2,6-dioxopiperidin-3-yl)-1,3-dioxoisoindolin-4-yl)prop-2-yn-1-yl)amino)-3-oxopropanoyl)-4-((R)-3-phenylpiperidine-1-carbonyl)-1,2,5-thiadiazinan-5-yl)-3,3-dimethyl-1-oxobutan-2-yl)carbamoyl)-1H-inden-5-yl)difluoromethyl)phosphonic acid]",> 10
6,"CC(C)(C)[C@H](NC(=O)c1cc2cc(C(F)(F)P(=O)(O)O)ccc2s1)C(=O)N1CCN(C(=O)CC(=O)NCCC#Cc2ccc3c(c2)C(=O)N(C2CCC(=O)NC2=O)C3=O)C[C@H]1C(=O)N1CCO[C@H](c2ccccc2)C1 (stereo partly drawn) [Compound 510, ((2-(((2S)-1-((2S)-4-(3-((4-(2-(2,6-dioxopiperidin-3-yl)-1,3-dioxoisoindolin-5-yl)but-3-yn-1-yl)amino)-3-oxopropanoyl)-2-((R)-2-phenylmorpholine-4-carbonyl)piperazin-1-yl)-3,3-dimethyl-1-oxobutan-2-yl)carbamoyl)benzo[b]thiophen-5-yl)difluoromethyl)phosphonic acid]",> 10
7,"CC(C)(C)[C@H](NC(=O)c1cc2cc(C(F)(F)P(=O)(O)O)ccc2s1)C(=O)N1C[C@@H](OCC(=O)NCCCCC#Cc2ccc3c(c2)C(=O)N(C2CCC(=O)NC2=O)C3=O)C[C@H]1C(=O)N1CCC[C@H](c2ccccc2)C1 (stereo partly drawn) [Compound 500, ((2-(((2S)-1-((2S,4S)-4-(2-((6-(2-(2,6-dioxopiperidin-3-yl)-1,3-dioxoisoindolin-5-yl)hex-5-yn-1-yl)amino)-2-oxoethoxy)-2-((R)-3-phenylpiperidine-1-carbonyl)pyrrolidin-1-yl)-3,3-dimethyl-1-oxobutan-2-yl)carbamoyl)benzo[b]thiophen-5-yl)difluoromethyl)phosphonic acid]",> 10
8,"Cc1ncsc1-c1ccc([C@H](CC(=O)NCCCCCCC(=O)N[C@H]2C[C@@H](C(=O)N3CCO[C@H](c4ccccc4)C3)N(C(=O)[C@@H](NC(=O)c3cc4cc(C(F)(F)P(=O)(O)O)ccc4s3)C(C)(C)C)C2)NC(=O)[C@@H]2C[C@@H](O)CN2C(=O)[C@@H](NC(=O)C2(F)CC2)C(C)(C)C)cc1 [Compound 569, (difluoro(2-(((S)-1-((2S,4S)-4-(7-((S)-3-((2S,4R)-1-((S)-2-(1-fluorocyclopropane-1-carboxamido)-3,3-dimethylbutanoyl)-4-hydroxypyrrolidine-2-carboxamido)-3-(4-(4-methylthiazol-5-yl)phenyl)propanamido)heptanamido)-2-((R)-2-phenylmorpholine-4-carbonyl)pyrrolidin-1-yl)-3,3-dimethyl-1-oxobutan-2-yl)carbamoyl)benzo[b]thiophen-5-yl)methyl)phosphonic acid]",> 10
9,"Cc1ncsc1-c1ccc([C@H](C)NC(=O)[C@@H]2C[C@@H](O)CN2C(=O)[C@@H](NC(=O)CCCCCCCNC(=O)COc2ccc3c(c2)CN(C(=O)[C@@H](NC(=O)c2cc4cc(C(F)(F)P(=O)(O)O)ccc4s2)C(C)(C)C)[C@H](C(=O)N2CCO[C@H](c4ccccc4)C2)C3)C(C)(C)C)cc1 [Compound 467, (difluoro(2-(((S)-1-((S)-7-(2-((8-(((S)-1-((2S,4R)-4-hydroxy-2-(((S)-1-(4-(4-methylthiazol-5-yl)phenyl)ethyl)carbamoyl)pyrrolidin-1-yl)-3,3-dimethyl-1-oxobutan-2-yl)amino)-8-oxooctyl)amino)-2-oxoethoxy)-3-((R)-2-phenylmorpholine-4-carbonyl)-3,4-dihydroisoquinolin-2(1H)-yl)-3,3-dimethyl-1-oxobutan-2-yl)carbamoyl)benzo[b]thiophen-5-yl)methyl)phosphonic acid]",> 10
10,"Cc1ncsc1-c1ccc([C@H](C)NC(=O)[C@@H]2C[C@@H](O)CN2C(=O)[C@@H](NC(=O)CCCCCCCCNC(=O)CC(=O)N2CCN(C(=O)[C@@H](NC(=O)c3cc4cc(C(F)(F)P(=O)(O)O)ccc4s3)C(C)(C)C)[C@H](C(=O)N3CCC[C@H](c4ccccc4)C3)C2)C(C)(C)C)cc1 [Compound 459, (difluoro(2-(((S)-1-((S)-4-(3-((9-(((S)-1-((2S,4R)-4-hydroxy-2-(((S)-1-(4-(4-methylthiazol-5-yl)phenyl)ethyl)carbamoyl)pyrrolidin-1-yl)-3,3-dimethyl-1-oxobutan-2-yl)amino)-9-oxononyl)amino)-3-oxopropanoyl)-2-((R)-3-phenylpiperidine-1-carbonyl)piperazin-1-yl)-3,3-dimethyl-1-oxobutan-2-yl)carbamoyl)benzo[b]thiophen-5-yl)methyl)phosphonic acid]",> 10

# Same assay, conditions: MOLM-16 cells, numeric bound, read-out: DC50 S6 MOLM-16
row,DC50 [µM],SMILES
1,> 0.3,"CC(C)(C)[C@H](NC(=O)c1cc2cc(C(F)(F)P(=O)(O)O)ccc2s1)C(=O)N1C[C@H](OCCCCCC#Cc2cccc3c2CN(C2CCC(=O)NC2=O)C3=O)C[C@H]1C(=O)N1CCC[C@H](c2ccccc2)C1 (stereo partly drawn) [Compound 602, ((2-(((2S)-1-((2S,4R)-4-((7-(2-(2,6-dioxopiperidin-3-yl)-1-oxoisoindolin-4-yl)hept-6-yn-1-yl)oxy)-2-((R)-3-phenylpiperidine-1-carbonyl)pyrrolidin-1-yl)-3,3-dimethyl-1-oxobutan-2-yl)carbamoyl)benzo[b]thiophen-5-yl)difluoromethyl)phosphonic acid]"
